# Experimental data as given in publication PMC8535866, “TMEM16A, a Homoharringtonine Receptor, as a Potential Endogenic Target for Lung Cancer Treatment” (International Journal of Molecular Sciences, 2021).
# Numbering of substitutions follows the chain as printed.
# Assays:
# TMEM16A [1] = target: T1, TMEM16A (Mus musculus, UniProt Q8BHY3); assay: whole-cell patch clamp in LA795 cells, Hill fit; type: cell-based
# T1 construct: gene Ano1; endogenous TMEM16A in LA795 cells
# T1 sequence (Q8BHY3 1-960): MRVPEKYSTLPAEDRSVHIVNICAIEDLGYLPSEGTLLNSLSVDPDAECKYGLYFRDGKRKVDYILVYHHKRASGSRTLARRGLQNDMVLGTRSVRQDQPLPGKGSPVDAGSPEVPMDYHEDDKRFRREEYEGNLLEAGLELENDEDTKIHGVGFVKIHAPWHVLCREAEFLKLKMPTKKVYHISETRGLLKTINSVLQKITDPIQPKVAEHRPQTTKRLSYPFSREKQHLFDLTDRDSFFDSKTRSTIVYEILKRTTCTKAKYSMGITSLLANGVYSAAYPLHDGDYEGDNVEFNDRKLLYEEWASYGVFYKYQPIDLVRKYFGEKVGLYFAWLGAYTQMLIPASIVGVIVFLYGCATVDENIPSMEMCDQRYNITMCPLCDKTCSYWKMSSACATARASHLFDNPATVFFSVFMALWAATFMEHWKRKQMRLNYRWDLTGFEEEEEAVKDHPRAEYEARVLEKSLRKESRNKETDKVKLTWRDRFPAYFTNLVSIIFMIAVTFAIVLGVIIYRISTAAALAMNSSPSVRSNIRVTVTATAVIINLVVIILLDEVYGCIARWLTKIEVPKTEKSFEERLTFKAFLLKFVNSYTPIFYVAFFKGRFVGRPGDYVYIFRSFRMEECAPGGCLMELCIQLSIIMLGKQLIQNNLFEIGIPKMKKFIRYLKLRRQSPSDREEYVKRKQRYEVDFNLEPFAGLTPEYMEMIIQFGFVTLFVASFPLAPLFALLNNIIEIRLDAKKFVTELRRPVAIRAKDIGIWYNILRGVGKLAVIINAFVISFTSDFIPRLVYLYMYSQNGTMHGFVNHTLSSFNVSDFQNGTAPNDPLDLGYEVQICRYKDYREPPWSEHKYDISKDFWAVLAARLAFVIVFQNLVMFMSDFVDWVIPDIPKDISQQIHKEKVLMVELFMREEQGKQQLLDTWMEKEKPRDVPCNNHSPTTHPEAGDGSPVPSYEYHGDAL
# TMEM16A [2] = target: T2, TMEM16A (Mus musculus, UniProt Q8BHY3, K769A); assay: whole-cell patch clamp of TMEM16A mutant; type: cell-based
# T2 construct: gene Ano1; TMEM16A mutant plasmid
# T2 sequence (Q8BHY3 1-960 K769A): T1 sequence (Q8BHY3 1-960) with K769A
compound,measurement,setting,value
"COC(=O)C[C@](O)(CCCC(C)(C)O)C(=O)O[C@@H]1C(OC)=C[C@]23CCCN2CCc2cc4c(cc2[C@H]13)OCO4 [HHT, Homoharringtonine]",IC50,TMEM16A [1],11.4 ± 1.68 µM
same,IC50,TMEM16A [2],70.8 ± 24.3 µM
